The values that follow are results of earlier work, collected in US20060035889A1, “Treatment for methamphetamine addiction and reduction of methamphetamine use using serotonin antagonists” (priority 2004, published 2006).

Some results are limits rather than exact numbers.

One data set addresses T1, 5-HT3 (Homo sapiens, UniProt P46098).
T1 sequence (P46098 24-478): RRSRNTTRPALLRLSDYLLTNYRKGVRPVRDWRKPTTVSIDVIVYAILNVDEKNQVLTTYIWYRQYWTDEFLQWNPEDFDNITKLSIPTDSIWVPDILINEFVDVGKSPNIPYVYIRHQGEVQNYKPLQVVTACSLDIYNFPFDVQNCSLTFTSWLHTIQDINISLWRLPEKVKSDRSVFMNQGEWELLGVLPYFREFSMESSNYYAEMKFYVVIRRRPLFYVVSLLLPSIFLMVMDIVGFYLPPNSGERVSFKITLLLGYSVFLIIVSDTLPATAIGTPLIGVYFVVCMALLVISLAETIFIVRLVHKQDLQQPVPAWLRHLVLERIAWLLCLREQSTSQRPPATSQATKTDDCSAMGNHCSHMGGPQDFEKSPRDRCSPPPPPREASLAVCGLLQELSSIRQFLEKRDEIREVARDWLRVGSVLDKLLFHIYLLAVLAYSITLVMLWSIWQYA
As to conditions: read-out: receptor affinity (Ki) 5-HT3; cited from earlier work.

In another data set the target is T2, 5-HT2C (Homo sapiens, UniProt P28335).
T2 sequence (P28335 33-458): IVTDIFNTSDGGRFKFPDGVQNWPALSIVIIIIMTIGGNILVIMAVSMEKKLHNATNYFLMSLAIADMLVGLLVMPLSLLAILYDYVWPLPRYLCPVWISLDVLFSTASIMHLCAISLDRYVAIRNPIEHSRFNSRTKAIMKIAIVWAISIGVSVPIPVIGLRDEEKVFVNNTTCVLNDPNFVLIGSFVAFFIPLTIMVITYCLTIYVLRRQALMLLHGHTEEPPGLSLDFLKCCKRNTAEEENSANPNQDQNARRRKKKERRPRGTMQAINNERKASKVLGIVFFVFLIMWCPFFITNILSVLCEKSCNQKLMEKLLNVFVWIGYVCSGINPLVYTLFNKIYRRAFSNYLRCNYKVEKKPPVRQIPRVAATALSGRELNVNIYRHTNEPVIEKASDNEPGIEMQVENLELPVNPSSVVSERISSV
The conditions noted are these: read-out: receptor affinity (Ki) 5-HT2C; cited from earlier work.

A further data set addresses D2 (Homo sapiens, UniProt P14416). As to conditions: read-out: receptor affinity (Ki) D2; cited from earlier work.
Another data set concerns the target α1. As to conditions: read-out: receptor affinity (Ki) α1; cited from earlier work.

Sequence of D2 (P14416 whole entry): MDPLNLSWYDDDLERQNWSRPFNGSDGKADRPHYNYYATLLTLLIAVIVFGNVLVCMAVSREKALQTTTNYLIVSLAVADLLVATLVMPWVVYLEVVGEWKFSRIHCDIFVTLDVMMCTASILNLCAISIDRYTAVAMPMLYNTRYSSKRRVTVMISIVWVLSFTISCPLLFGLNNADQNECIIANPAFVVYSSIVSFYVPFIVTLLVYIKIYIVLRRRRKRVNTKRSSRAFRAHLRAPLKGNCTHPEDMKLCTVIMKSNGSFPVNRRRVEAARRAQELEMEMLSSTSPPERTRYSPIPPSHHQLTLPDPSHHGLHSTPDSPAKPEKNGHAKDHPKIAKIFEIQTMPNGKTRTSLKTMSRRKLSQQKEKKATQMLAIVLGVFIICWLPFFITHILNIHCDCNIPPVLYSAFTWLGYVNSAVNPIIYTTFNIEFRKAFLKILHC

`CN1CCN2c3ncccc3Cc3ccccc3[C@@H]2C1` (racemic) [mirtazapine, 1,2,3,4,10,14b-hexahydro-2-methyl-pyrazino[2,1-a]pyrido[2,3-c]benzazepine]: the Ki on 5-HT3 is 8 nM; on 5-HT2C, 12 nM; on D2, greater than 1000 nM; on α1, 500 nM.

Broadly, the Ki is a measure of affinity in units of concentration, obtained from inhibition or displacement.
